# Measurements from patent publication US20050049228A1, “Antimicrobial photodynamic therapy compound and method of use” (CeramOptec Industries Inc., priority 2003, published 2005).
# Experiments:
# Test in all cases: Photodynamic inactivation of bacterial cell suspensions (CFU count after 532 nm laser irradiation)
# Format in all cases: cell-based
# [1] = system: Pseudomonas aeruginosa DSM 1117 (ATCC 27853); conditions: in presence of blood serum or plasma in the treatment suspensions, 10 μM, 100 μM, 1 mM, 30 min dark incubation, about 100 J/cm^2
# Protocol: (§1) The organisms used in our studies were three members of the microflora of wounds: Staphylococcus aureus DSM1104 (A TCC 25923), Gram-positive; Escherichia coli DSM 8698, Gram-negative; Pseudomonas aeruginosa DSM 1117 (ATCC 27853), Gram-negative. All strains were grown aerobically overnight at 37° C. in Tryptic Soy Broth (Merck KGaA Darmstadt, Germany). Cells were harvested by centrifugation and resuspended in sterile phosphate-buffered saline (PBS) or sterile PBS supplemented with 10% sterile horse blood serum (Oxoid), 10% human plasma or 10% human blood (both freshly obtained from donors), respectively. The final OD (Optical Density) at 600 nm, 1 cm in all cases was 0.03.
# (§2) Aliquots (190 μl) of the bacterial suspensions were placed into sterile black 96 well plates with clear bottom (Costar® 3603, Corning Inc., USA). 10 μl of three different Safranin O stock solutions were added to obtain the final photosensitizer concentrations of 10 μM, 100 μM and 1 mM, respectively. The plates were incubated for 30 minutes in the dark at room temperature.
# (§3) After incubation the samples were exposed to light from a laser Ceralas G2 (biolitec AG, Germany), 532 nm, power set to 0.5 W, irradiation time of […] via a light fiber from the bottom of the plate. The fluence rate for these settings was about 1.2 W/cm^2 (measured with Optometer P-9710, Gigahertz-Optik GmbH, Puchheim, Germany). With the irradiation time, the resulting energy fluence was about 100 J/cm^2.
# (§4) Control wells contained no Safranin O and were not exposed to laser light. The control samples for dark toxicity were only exposed to Safranin O (end concentration of 1 mM) without any illumination.
# (§5) After illumination the samples were removed from the wells of the plate, diluted with Tryptic Soy Broth and plated by using spiral plater Eddy Jet (iul Instruments, Barcelona, Spain) on Tryptic Soy agar plates. The numbers of colony-forming units (CFU/ml) were enumerated after adequate incubation by using colony counter Countermat Flash (iul Instruments, Barcelona, Spain).
# [2] = system: Escherichia coli DSM 8698; conditions: in presence of blood serum or plasma in the treatment suspensions, 10 μM, 100 μM, 1 mM, 30 min dark incubation, about 100 J/cm^2
# Protocol: as §1, §2, §3, §4, §5
# [3] = system: Staphylococcus aureus DSM1104 (ATCC 25923); conditions: cell suspensions in PBS and in PBS+10% horse blood serum, PBS+10% human plasma, 10 μM, 100 μM, 1 mM, 30 min dark incubation, about 100 J/cm^2
# Protocol: as §1, §2, §3, §4, §5
smiles,measurement,setting,value
Cc1cc2nc3cc(C)c(N)cc3[n+](-c3ccccc3)c2cc1N.[Cl-] [Safranin O],killing of cell suspensions by PDT treatment,[1],sufficient killing
same,killing of cell suspensions by PDT treatment,[2],sufficient killing
same,killing effect by PDT treatment,[3],very good killing effect
